What was measured:
[1] = Stability of NTI164 in oil at room temperature (UPLC, weekly assay, CBDA as marker)
TNF-alpha = experiment: Multiplex cytokine/chemokine assay, TNF-alpha; format: cell-based, human; details: 2 μg/ml; Interleukin and Interferon activation
Protocol: (§1) Multiplex Cytokine/Chemokine Assay: Microglia media harvested following treatment initiation was centrifuged briefly to remove particulates (300 g for 10 min). Cytokine and chemokine levels in the microglial media were measured using a Bio-Plex 200 with a 96-well magnetic plate assay according to the manufacturer's instructions (Bio-Rad). Cytokines and chemokines measured included IL-1α, IL-1β, IL-2, IL-6, IL-10, IL-12 (p70), IL-13, G-CSF, GM-CSF, IFNγ, TNFα, CXCL1 (KC), CCL2 (MCP-1), and CCL5 (RANTES). All samples were run in duplicate and data were analyzed with the Bio-Plex Manager software.
(§2) The tubes are then placed in a sonication bath for 10 mins at 35-40 C. Upon completion of the sonication samples are then placed in a tray shaker (200 rpm) for 30 minutes at room temperature. Once completed the samples are then centrifuged at 4400 rpm for 5 minutes. The supernatant is collected for testing and development.
(§3) For the CBD sample, a pure standard (in powder form) was used. CBD 98% isolate was purchased as a reference standard from LGC Standards (London UK) (CAS No. 13956-29-1). The CBD standard reference was prepared at concentration of 1 mg/ml (in acetonitrile). CBD dilutions were made in acetonitrile as follows: 2 μg/ml; 6 μg/ml; and 0.1 μg/ml.

IL-12 = experiment: Multiplex cytokine/chemokine assay, IL-12; format: cell-based, human; details: 2 μg/ml; Interleukin and Interferon activation; control 99.91
Protocol: as §1, §2, §3

COX-2 = COX-2 immunohistochemistry (protein level) assay in microglial cells; format: cell-based, human; details: 2 μg/ml, N=9
Protocol: Immunohistochemistry (Protein Level) Assay: Cells were fixed for 10 min with 4% paraformaldehyde (PFA) in PBS. After 3×5 minutes washing with PBS, cells were incubated with primary antibodies (anti-COX2) 1:1000 overnight at 4° C., and after 3×5 minutes washing in PBS, cells were then incubated in appropriate fluorescent secondary antibody 1:250 (Invitrogen) for 2 hours at room temperature. After a final wash, as previous, cells nuclei were sained with DAPI in the mounting media. Photomicrographs were taken of the cells in three fields of view per well from duplicate wells and analysed using Fiji for area coverage of each marker.
as §2, §3

neurons = experiment: Cell death in an excitotoxic cell injury paradigm; format: cell-based; details: excitotoxic cell injury paradigm (glutamate 3 mM); 2 μg/ml
Protocol: Neuronal viability was quantified using MTT [3-(4,5-dimethylthiazol-2-yl-)-2,5-diphenyl-2H-tetrazolium bromide; Sigma]. […] Cellular excitotoxicity was achieved via glutamate activation (3 mM).

| Structure (SMILES) | Cannabinoid concentration in NTI164 (sample 28206-7) ([1]; Day 0 (13 Jul. 2021)) [mg/mL] | Cannabinoid concentration in NTI164 (sample 28206-7) ([1]; Day 2 (15 Jul. 2021)) [mg/mL] | Cannabinoid concentration in NTI164 (sample 28206-7) ([1]; Day 7 (20 Jul. 2021)) [mg/mL] | Cannabinoid concentration in NTI164 (sample 28206-7) ([1]; Day 14 (29 Jul. 2021)) [mg/mL] | Cannabinoid concentration in NTI164 (sample 28206-7) ([1]; Day 28 (12 Aug. 2021)) [mg/mL] | Cannabinoid concentration in NTI164 (sample 28206-7) ([1]; Week 5 (19 Aug. 2021)) [mg/mL] | Cannabinoid concentration in NTI164 (sample 28206-7) ([1]; Week 6 (27 Aug. 2021)) [mg/mL] | Cannabinoid concentration in NTI164 (sample 28206-7) ([1]; Week 32 (12 Sep. 2022)) [mg/mL] | TNF-alpha, Average +/- Standard Deviation (SD) (TNF-alpha) | IL-12, Average +/- Standard Deviation (SD) (IL-12) | COX-2 expression, Avg +/- SEM (COX-2; exposure 1 hour after inflammatory insult (Interleukin and Interferon gamma), positive control 104.26) | COX-2 expression, Avg +/- SEM (COX-2; exposure 1 hour prior to inflammatory insult (Interleukin and Interferon gamma), positive control 94.47) | Cell death / toxicity (neurons) |
| --- | --- | --- | --- | --- | --- | --- | --- | --- | --- | --- | --- | --- | --- |
| CCCCCc1cc2c(c(O)c1C(=O)O)[C@@H]1C=C(C)CC[C@H]1C(C)(C)O2 [(Tetrahydrocannabinolic acid) (D9-THCA), Tetrahydrocannabinolic acid] | 0.66 | 0.72 | 0.64 | 0.69 | 0.36 | 0.79 | 0.73 | <0.1 | – | – | – | – | – |
| C=C(C)[C@@H]1CCC(C)=C[C@H]1c1c(O)cc(CCCCC)cc1O [CBD, Cannabidiol, reference compound] | 0.46 | 0.56 | 0.53 | 0.56 | 0.54 | 0.60 | 0.51 | 0.48 | 71.13 +/− 12.81 | 84.40 +/− 6.54 | 76.32 +/− 7.95 (SEM) | 84.82 +/− 7.65 (SEM) | toxic |
| CCCCCc1cc(O)c2c(c1)OC(C)(CCC=C(C)C)C=C2 (stereo not drawn) [Cannabichrome (CBC), Cannabichrome] | 1.23 | 1.19 | 1.34 | 1.22 | 1.27 | 1.20 | 1.15 | 1.22 | – | – | – | – | – |
| C=C(C)[C@@H]1CCC(C)=C[C@H]1c1c(O)cc(CCCCC)c(C(=O)O)c1O [Cannabidiol acid (CBD-A), Cannabidiol acid] | 48.16 | 48.19 | 48.62 | 48.09 | 47.12 | 48.35 | 47.56 | 47.01 | – | – | – | – | – |
| C=C(C)[C@@H]1CCC(C)=C[C@H]1c1c(O)cc(CCC)cc1O [Cannabidivarin (CBDV), Cannabidivarin] | <0.1 | <0.1 | <0.1 | <0.1 | <0.1 | 0.10 | <0.1 | 0.13 | – | – | – | – | – |
| CCCCCc1cc(O)c(C/C=C(\C)CCC=C(C)C)c(O)c1 [Cannabigerol (CBG), Cannabigerol] | 5.21 | 5.23 | 5.14 | 5.1 | 5.1 | 5.30 | 5.28 | 5.12 | – | – | – | – | – |
| CCCCCc1cc(O)c(C/C=C(\C)CCC=C(C)C)c(O)c1C(=O)O [Cannabigerol Acid(CBG-A), Cannabigerol Acid] | 1.07 | 1.18 | 1.20 | 1.19 | 0.81 | 1.08 | 1.00 | 1.05 | – | – | – | – | – |
| CCCCCc1cc(O)c2c(c1)OC(C)(C)c1ccc(C)cc1-2 [Cannabinol (CBN), Cannabinol] | 2.32 | 2.54 | 2.48 | 2.33 | 2.56 | 2.22 | 2.27 | 2.21 | – | – | – | – | – |
| CCCCCc1cc(O)c2c(c1)OC(C)(C)[C@@H]1CC=C(C)C[C@@H]21 [DELTA-8-THC (D8-THC), DELTA-8-THC] | <0.1 | <0.1 | <0.1 | <0.1 | <0.1 | <0.1 | <0.1 | <0.1 | – | – | – | – | – |
| CCCCCc1cc(O)c2c(c1)OC(C)(C)[C@@H]1CCC(C)=C[C@@H]21 [Tetrahydrocannabinol (D9-THC), Tetrahydrocannabinol] | <0.1 | <0.1 | <0.1 | <0.1 | <0.1 | 0.14 | <0.1 | 0.11 | – | – | – | – | – |
| CCCc1cc(O)c2c(c1)OC(C)(C)[C@@H]1CCC(C)=C[C@@H]21 [Tetrahydrocannabivarin (THCV), Tetrahydrocannabivarin] | <0.1 | <0.1 | <0.1 | <0.1 | <0.1 | <0.1 | <0.1 | <0.1 | – | – | – | – | – |

— patent publication US20260077009A1, “COMPOSITIONS AND METHODS FOR TREATING NEUROLOGICAL DISORDERS” (Neurotech International Ltd, priority 2021, published 2026)
